According to patent publication US9592213B2, “Prophylactic and/or therapeutic agent for dysmenorrhea” (National University Corporation Kumamoto University, priority 2009, dated 2017):
“Also recorded” adds a separate entry of the source.

What was measured:
[1] = cited from earlier work
[2] = tested on: Immortalized human retinal pigment epithelial cell line ARPE-19; assay: Example B1: transition of cell morphology from mesenchymal form to epithelial form after TGFβ2 and TNFα; assay type: cell-based; conditions: tranilast 1 μg/ml added 48 hours after TGFβ2 5 ng/ml and TNFα 100 ng/ml, read after 96 hours
Experimental: Immortalized human retinal pigment epithelial cell line ARPE-19 (ATCC No.: CRL-2302) was disseminated into a 96-well glass plate (EZView Culture Plate, LB Cover Glass Bottom, 96 wells, Iwaki) at 1×10^4 cells/well followed by culturing at 37° C. in a 5% CO2 environment. After 5 days, 150 μl aliquots each of DMEM-F12 (serum-free, Sigma-Aldrich) medium supplemented by 5 ng/ml of TGFβ2 and 100 ng/ml of TNFα were prepared and used to replace the original medium in the wells and cultured at 37° C. in a 5% CO2 environment.
After 48 hours, the plate was removed from the incubator followed by the addition of tranilast (1 μg/ml) and culturing at 37° C. in a 5% CO2 environment. After 96 hours, the plate was washed with PBS and the cells were fixed for 30 minutes with 4% paraformaldehyde (Wako), and after washing with PBS, were stained for 1 hour with F-actin (Alexa Fluor 568 Phalloidin, Invitrogen) and nuclei (Hoechst 33342, Invitrogen) followed by washing with PBS and then immediately photographing using a fluorescence microscope (Keyence) at a magnification factor of 40×.

[3] = Clinical study of therapeutic effect of oral administration of tranilast in dysmenorrhea patients; assay type: in vivo, human
Experimental: Subject A was given 100 mg of tranilast three times a day by oral administration (300 mg per day, divided three times daily) daily for about six months starting on Sep. 1, 2008.
Menstrual pain was measured according to a numerical rating scale (NRS). In the NRS, the patient was asked to evaluate and record the degree of pain by themself by judging the degree of pain according to 11 levels ranging from level 0 indicating the absence of pain to level 10 indicating maximum pain. Menstrual blood loss was evaluated according to 5 levels ranging from level 0 indicating the absence of blood loss up to level 4 as blood loss increased.
The term “average” in the graphs indicates a value obtained by dividing the total sum of the pain level for each menstrual period by the number of days on which pain was felt.
The term “max” indicates a value of the day when the most intense pain was felt during each menstrual period.
Pain during menstruation was evaluated by the record made for each day by the patient according the 11 levels from level 0 indicating the absence of pain to level 10 indicating maximum pain in the same manner as Subjects A and B, using the NRS method.
The average values and maximum values of NRS scores indicating the intensity of pain during each menstrual period were derived, and the values were compared between the menstrual period at the start of administration and the last menstrual period during the administration period as shown in graphs of FIGS. 8A and 9A. In addition, the degrees of decrease in average values and maximum values for menstrual pain during the last menstrual period relative to the first menstrual period at the start of administration were represented as improvement rates, and are shown in FIGS. 8B and 9B.
Moreover, Subjects A, C, D, E, F and G, but excluding Subject B, underwent examinations at the facility conducting the clinical study at roughly one month intervals during the administration period, and were interviewed by a specialist in the department of gynecology. Interview findings before the start of administration and interview findings at the time of their final visit were compared and are shown in FIG. 10.

EM-E6/E7/hTERT cells = assay: Example B2: western blotting of fibronectin and N-cadherin expression in endometrial epithelial cells; assay type: cell-based; conditions: tranilast 320 μM, 80 μM, 20 μM with TGFβ2 5 ng/ml, TNFα 100 ng/ml or both, 48 hours
Experimental: Cell line EM-E6/E7/hTERT cells (EM) derived from endometrial epithelium were disseminated in a 6-well glass plate (EZView Culture Plate, LB Cover Glass Bottom, 6 wells, Iwaki) at 1×10^5 cells/well, followed by culturing for 2 days at 37° C. in an environment having a carbon dioxide concentration of 5% in DMEM/F12 medium and in the presence of 10% serum, and then culturing for 3 days after replacing the medium with serum-free DMEM/F12 medium.
Subsequently, tranilast (320 μM, 80 μM, 20 μM) was added to medium containing TGFβ2 at 5 ng/ml, TNFα at 100 ng/ml or both followed by replacing the medium. Protein was recovered 48 hours after having replaced the medium with the medium containing TGFβ2 or TNFα, and expression levels of fibronectin and N-cadherin were compared by western blotting.
Anti-fibronectin antibody (clone ID: F14, Epitomics) and anti-N-cadherin antibody (clone ID: 32/N-cadherin, BD Transduction Laboratories) were used for the antibodies.

[4] = continuous infusion for 3.5 days at 7.5 mg/kg, normal adult; cited from earlier work
[5] = Patient history: adverse effects of earlier drugs in study subjects; assay type: in vivo, human; conditions: Subject I, administration from Mar. 18, 2010
[6] = Subject A, organic dysmenorrhea, 100 mg three times a day orally, about six months
[7] = Subject B, August menstrual period, 100 mg/day
[8] = Subject B, September menstrual period, 200 mg/day
[9] = Subject B, after start of administration
[10] = Subject B, functional dysmenorrhea, 100-200 mg/day orally, about six months

COc1ccc(C=CC(=O)Nc2ccccc2C(=O)O)cc1OC [Tranilast, N-(3,4-dimethoxycinnamoyl) anthranilic acid]
solubility in 1,4-dioxane ([1]; 1,4-dioxane): soluble
solubility in N,N-dimethylformamide ([1]; N,N-dimethylformamide): freely soluble
solubility in diethyl ether ([1]; diethyl ether): very slightly soluble
solubility in ethanol ([1]; ethanol): slightly soluble
solubility in water ([1]; water): practically insoluble
cell morphology [2]: exhibited an epithelial form
foci formed after TGFβ2 and TNFα [2]: alleviated
lower abdominal pain and lower back pain during menstruation (NRS scores) [3, 6]: trend of decrease; also recorded: effects of alleviating lower abdominal pain and lower back pain were observed
menstrual blood loss [3, 6]: trend of decrease
adverse side effects from taking tranilast ([3]; Subject B): no adverse side effects
menstrual blood loss [3, 7]: remained high
menstrual pain [3, 7]: less menstrual pain
pain and blood loss sensed by patient ([3]; Subject B, December, 100 mg/day): reduced pain and blood loss
menstrual blood loss [3, 8]: Reduction
menstrual pain [3, 8]: Reduction
duration of menstruation [3, 9]: decreased significantly
symptoms of menorrhagia [3, 9]: clearly improved
lower abdominal pain and lower back pain during menstruation (NRS scores) [3, 10]: clearly decrease; also recorded: decrease significantly
menstrual blood loss [3, 10]: clearly decrease; also recorded: decreased significantly
pain at menstrual period ([3]; Subject H, organic dysmenorrhea, 100 mg three times per day orally, roughly one month): Pain diminished
need for analgesic ([3]; Subject H, roughly one month after beginning administration): no longer need to take an analgesic
menstrual pain and chronic pelvic pain when not menstruating (interview findings) ([3]; Subject I, examination Jun. 4, 2010): diminished and no longer interfered with their job
pain at first menstrual period after beginning administration ([3]; Subject I, organic dysmenorrhea, 100 mg three times per day orally): the pain diminished
analgesic use at first menstrual period after beginning administration ([3]; Subject I, before: multiple days with four analgesic tablets per day): one tablet of analgesic per day for 3 days
pain during menstruation, last menstrual period of administration vs menstrual period at start (NRS average and maximum) ([3]; Subjects A, B, C, D, E, F and G): prominent decreases
interview findings by gynecological specialist on menstrual pain, final visit vs before start ([3]; Subjects A, C, D, E and F): menstrual pain diminished
expression level of N-cadherin (EM-E6/E7/hTERT cells): inhibited the expression
expression level of fibronectin (EM-E6/E7/hTERT cells): inhibited the expression
Cmax [4]: 2200 ng/mL

C[C@]12CCC3=C4CCC(=O)C=C4CC[C@H]3[C@@H]1CC[C@@]2(O)CC#N [dienogest]
adverse effect in patient history leading to discontinuation [5]: persistent abnormal genital bleeding
